Results on three molecules are retold here after patent publication US20020183258A1, “Process of inhibiting cell death in injured cartilage” (The Scripps Research Institute, priority 2001, published 2002).

Entries after “also recorded” stand apart in the source; their conditions may differ. Where a SMILES comes first, the peptide text is derived from it. The star is where a group is joined. Cbz = O=C(OCc1ccccc1)*; CH2F = FC* Bounds are passed on as bounds.

In assay [1] the test system is bovine cartilage explants. As to the kind of experiment: Load-induced chondrocyte apoptosis (TUNEL) in mechanically injured bovine cartilage explants. Type of assay: cell-based. The settings on record: for Mean (±SD) apoptosis rates, Loaded + Agent: bovine femoral condyle cartilage, loaded at 23 MPa, rate = percentage of TUNEL positive cells, n = 8 to 10. The source says:
Macroscopically normal weight bearing portions of freshly slaughtered skeletally mature bovine femoral condyles were selected from animals between 2 and 6 years of age (Animal Technologies, Austin, Tex.). Only joints without visible signs of degeneration or aging were selected. Using sterile techniques, fall thickness cartilage was separated from underlying subchondral bone with a scalpel and 5 mm diameter cylindrical explants, ranging from 1 to 1.8 mm in height, cored out using a dermal punch (Acuderm, Inc., Ft. Lauderdale, Fla.). Explants taken from adjacent sites were used as matched controls for each group in each experiment to minimize variation in cartilage response due to differences in thickness and location within the joint. Each explant was weighed and allowed to stabilize at 37° C. and 5% CO2 for 48 hours in 1 ml of Dulbecco's modified Eagle's medium (DMEM) supplemented with 10% fetal bovine serum (FBS), L-glutamine, antibiotics and 50 μg/ml ascorbic acid.
Full thickness bovine cartilage explants, 5 mm in diameter, were subjected to a single static mechanical load of 7, 14 or 23 MPa for 500 msec. This model simulates traumatic cartilage injury and the loads were similar in magnitude to those generated during traumatic joint injury. Glycosaminoglycan (GAG) release and percent apoptotic cells were measured. The effect of a pan-caspase inhibitor, z-VAD.fmk [benzyloxycarbonyl-Val-Ala-Asp (OMe) fluoromethylketone] in preventing chondrocyte apoptosis was determined. z-VAD.fmk is a fluoromethylketone irreversible inhibitor of a broad spectrum of caspases. […] The percentage of apoptotic chondrocytes was related to load intensity and correlated with the level of GAG release from cartilage. […] This identifies a new approach to limit traumatic cartilage injury and the subsequent development of secondary osteoarthritis.
A model to simulate acute joint injury was used in this study based on injury models reported by Repo and Finlay, and Jeffrey et al. (Repo, et al. (1977) J. Bone Joint Surg. Am. 59A, 1068-1076, Jeffrey, et al. (1995) Arch. Biochem. Biophys. 322, 87-96). Although these reported models impacted cartilage using drop towers, a more controlled method was chosen for applying and maintaining stress or strain as follows. An Instron 8511 servohydraulic testing machine (Instron Corporation, Boston, Mass.) was used to mechanically load the cartilage explants. Explants were transported from the incubator to the Instron machine in sealed cell culture dishes. The explant was centralized on a stainless steel loading platform and a radially unconfined compressive load was applied through an impermeable stainless steel platen. A small preload (0.1 MPa) was applied for 2 minutes, followed by a single 500 msec trapezoidal loading waveform at the selected stress. The stress rose from 0.1 MPa to the chosen stress level in 100 msec and was maintained for 500 msec. Three stress levels were chosen to represent acute joint injury. 7 MPa has been reported to be the upper limit of physiologic stress developed during activities of daily living (von Eisenhart, et al. (1999) J. Orthop. Res. 17, 532-539). 23 MPa is the stress above which the underlying bone has been reported to fracture (Haut (1989) J. Orthop. Res. 7, 272-280). Control explants were placed in the loading apparatus but not loaded. Both control and loaded explants were re-cultured in fresh culture media immediately after loading. Stress and strain data were recorded during the test. […]

For a further assay, the system named is human cartilage explants. The experiment in a line: Load-induced chondrocyte apoptosis (TUNEL) in mechanically injured human cartilage explants. It counts as cell-based. The settings on record: for Mean (±SD) apoptosis rates, Loaded + Agent: human cartilage (femoral condyles and tibial plateaus), n = 8 to 10. An excerpt: Macroscopically normal tibial and femoral articular surfaces were selected from human cadaver donors between 18 and 45 years of age. Using sterile techniques, full thickness cartilage was separated from underlying subchondral bone with a scalpel. 5 mm diameter cylindrical explants, ranging from 2 to 2.8 mm in thickness, cored out using a dermal punch (Acuderm, Inc., Ft. Lauderdale, Fla.). Explants taken from adjacent sites were used as matched controls for each group in each experiment to minimize variation in cartilage response due to differences in thickness and location within the joint. Each explant was weighed and allowed to stabilize at 37° C. and 5% CO2 for 48 hours in Dulbecco's modified Eagle's medium (DMEM) supplemented with 5% fetal bovine serum (FBS), L-glutamine, antibiotics and […] ascorbic acid.
An Instron 8511 servohydraulic testing machine (Instron Corporation, Boston, Mass.) was used to mechanically load the cartilage explants. Explants were transported from the incubator to the Instron machine in sealed cell culture dishes. The total time duration of loading for a single experiment varied from approximately 1 to 2 hours depending on the number of samples. […] Stress and strain data were recorded during the test.
To determine whether caspase inhibitors could prevent apoptosis, explants were cultured in […] z-VAD.fmk (a broad spectrum caspase inhibitor) immediately after injury (30% strain level). Percentage apoptosis was measured at 96 hours post-injury in three groups (control, loaded, and loaded with z-VAD.fmk) with ten explants each in two separate experiments.
Explants loaded as described above were fixed in 10% buffered formalin. […] This was detected by immunohistochemical staining with M30 (Cytodeath, Boehringer Mannheim, Eugene, Oreg.), a monoclonal antibody that recognizes the neo-epitope exposed in early apoptosis.
In an additional study the apoptosis response of human articular cartilage to mechanical stress was examined. […] GAG release and percentage of cells undergoing apoptosis were measured at 96 hours after injury. […]

The subject of assay [2] is bovine cartilage explants. As to the kind of experiment: Glycosaminoglycan (GAG) release assay (dimethylene blue) in injured bovine cartilage explants. Type of assay: cell-based. The settings on record: loaded, z-VAD.fmk 100 μM, 48 hours. As for the experimental part: Glycosaminoglycan release assay. To estimate GAG depletion and release, the concentration of sulfated glycosaminoglycans was measured using 1,9-Dimethylene Blue (DMMB) as a monitor of spectrophotometric changes which occur during the formation of the sulfated GAG dye complex (Fardale, et al. (1986) Biochim. Biophys. Acts. 883, 173-177, Goldberg, et al. (1993) Agents Actions 39 Spec No, C163-C165). For GAG content measurement, samples were digested in papain and collagenase and the concentration of sulfated GAG measured using DMMB. To generate a standard curve, chondroitin-6-sulfate (Sigma, St. Louis, Mo.) was used at concentrations between 1 and 200 μg/ml. GAG released in media was normalized to the pooled mean GAG content of Control (uninjured) cartilage explants and expressed as a percentage of total GAG content.
To determine whether apoptosis could be prevented by caspase inhibition, 12 explants were loaded at 23 MPa (High Load) and cultured for 48 hours. […] Six more explants were used as non-loaded controls. Percent apoptosis and GAG release in media was measured as described above.
Release of sulfated glycosaminoglycans (GAG) was analyzed as a measure of the extent of damage sustained by the explant. […] GAG depletion was assessed by dimethylene blue binding assays of the culture supernatants and this correlated with the reduced of safranin O staining of the cartilage sections.

Assay [3] has as its system rabbits with ligament transection. The experiment in a line: Intraarticular injection of caspase inhibitor in rabbits with anterior cruciate ligament transection (ACLT). Type of assay: in vivo, New Zealand White rabbits. The method, then: A pilot study was performed to assess feasibility and efficacy of caspase inhibition in vivo. Eight New Zealand White rabbits were divided into anterior cruciate ligament transection (ACLT) and ACLT+caspase inhibitor (CI) groups. Both groups underwent bilateral ACLT. The ACLT+CI group was treated with intra-articular injections of 25 μg of z-VAD.fmk three times per week for six weeks while the control group received saline injections. Rabbits were euthanised at six weeks and femoral and tibial articular cartilage evaluated by India ink staining and histologic Mankin grading after Safranin-O stain.
Histologically, more knees from the ACLT group had higher Mankin scores. 87% (⅞) ACLT knees had grades 5 or higher, while 50% ( 4/8) ACLT+CI knees were graded 5 or higher. The India ink stained femoral condyles were photographed and digital images were used to quantify the surface areas of the lesions.

For `C[C@@H]1C[C@H]2[C@@H]3CCC4=CC(=O)C=C[C@]4(C)[C@@]3(F)[C@@H](O)C[C@]2(C)[C@@]1(O)C(=O)CO` [Dexameth.], in assay [1], the “Mean (±SD) apoptosis rates, Loaded + Agent” value (“Mean (±SD) apoptosis rates” below) is 47 (±11.2).

Regarding `COC(=O)CC(NC(=O)C(C)NC(=O)C(NC(=O)OCc1ccccc1)C(C)C)C(=O)CF` (stereo not drawn) [z-VAD.fmk, benzyloxycarbonyl-Val-Ala-Asp (OMe) fluoromethylketone] (Cbz-Val-Ala-Asp(OMe)-CH2F; configuration not given here), in assay [1] (bovine explants, high and intermediate load groups, vs loaded without agent), the “reduction in the apoptosis rate” value is greater than 50%. Moreover, the “effect on chondrocyte apoptosis after mechanical injury” value in assay [1] (bovine explants, single static load, 500 msec) is on record as “reduced chondrocyte apoptosis after mechanical injury”. Further, the “Mean (±SD) apoptosis rates” value in assay [1] is 31 (±13.9); in the assay with human cartilage explants (loaded at 23 MPa (footnote *)), 34 (±10.2)*. The “reduction in apoptosis rates” value with human cartilage explants (human explants, 30% strain, cultured in 100 mM z-VAD.fmk after injury, 96 hours post-injury, p<0.05) is given as 50%. Further, in assay [2], the “effect on GAG release / GAG depletion after mechanical injury” value was “reduction in GAG release; also recorded: normalization of the GAG depletion”. Also, in assay [3] (rabbit ACLT, India ink stained femoral condyles, digital images, six weeks, 25 μg intra-articular three times per week), the “reduction of the size (surface area) of the cartilage lesions” value was roughly 80%. Moreover, in assay [3] (rabbit ACLT, six weeks, 25 μg intra-articular three times per week (ACLT saline: grade III to IVa)), the “India ink grade of cartilage lesions” value is reported as “ranged from II (minimum fibrillation), with only one rabbit (two knees) having a Grade III to IVa lesion”. For the same molecule, the “area of cartilage lesions under India ink examination” value in assay [3] (rabbit ACLT, six weeks, vs ACLT saline group) is “lesions that were smaller in area”. The “knees with histologic Mankin grades 5 or higher” value in assay [3] (rabbit bilateral ACLT, 25 μg intra-articular three times per week for six weeks, 4/8 knees (ACLT saline 87%)) amounted to 50%.

For the molecule “IGF-1: agent tested for pharmacologic modulation of apoptosis after cartilage injury in vitro”, the “Mean (±SD) apoptosis rates” value in assay [1] is 42 (±10.9); in the assay on human cartilage explants (loaded at 30% strain) it was 10 (±6.2).
